Where “and” joins values, the source holds several entries; their conditions need not be identical. Identical values can stand only once. Like-named read-outs stand apart in the source and are kept apart here.
How the values were obtained:
Assay in all cases: cell-based
hNav1.7 = hNav1.7 (Homo sapiens, UniProt Q15858); settings: for IC50: read-out: IC50 (μM) Nav1.7; for Nav1.4/Nav1.7: ratio of IonWorks Quattro IC50 values, Nav1.4 over Nav1.7
hNav1.3 = hNav1.3 (Homo sapiens, UniProt Q9NY46); settings: read-out: IC50 (μM) Nav1.3
Sequence of hNav1.3 (Q9NY46 whole entry): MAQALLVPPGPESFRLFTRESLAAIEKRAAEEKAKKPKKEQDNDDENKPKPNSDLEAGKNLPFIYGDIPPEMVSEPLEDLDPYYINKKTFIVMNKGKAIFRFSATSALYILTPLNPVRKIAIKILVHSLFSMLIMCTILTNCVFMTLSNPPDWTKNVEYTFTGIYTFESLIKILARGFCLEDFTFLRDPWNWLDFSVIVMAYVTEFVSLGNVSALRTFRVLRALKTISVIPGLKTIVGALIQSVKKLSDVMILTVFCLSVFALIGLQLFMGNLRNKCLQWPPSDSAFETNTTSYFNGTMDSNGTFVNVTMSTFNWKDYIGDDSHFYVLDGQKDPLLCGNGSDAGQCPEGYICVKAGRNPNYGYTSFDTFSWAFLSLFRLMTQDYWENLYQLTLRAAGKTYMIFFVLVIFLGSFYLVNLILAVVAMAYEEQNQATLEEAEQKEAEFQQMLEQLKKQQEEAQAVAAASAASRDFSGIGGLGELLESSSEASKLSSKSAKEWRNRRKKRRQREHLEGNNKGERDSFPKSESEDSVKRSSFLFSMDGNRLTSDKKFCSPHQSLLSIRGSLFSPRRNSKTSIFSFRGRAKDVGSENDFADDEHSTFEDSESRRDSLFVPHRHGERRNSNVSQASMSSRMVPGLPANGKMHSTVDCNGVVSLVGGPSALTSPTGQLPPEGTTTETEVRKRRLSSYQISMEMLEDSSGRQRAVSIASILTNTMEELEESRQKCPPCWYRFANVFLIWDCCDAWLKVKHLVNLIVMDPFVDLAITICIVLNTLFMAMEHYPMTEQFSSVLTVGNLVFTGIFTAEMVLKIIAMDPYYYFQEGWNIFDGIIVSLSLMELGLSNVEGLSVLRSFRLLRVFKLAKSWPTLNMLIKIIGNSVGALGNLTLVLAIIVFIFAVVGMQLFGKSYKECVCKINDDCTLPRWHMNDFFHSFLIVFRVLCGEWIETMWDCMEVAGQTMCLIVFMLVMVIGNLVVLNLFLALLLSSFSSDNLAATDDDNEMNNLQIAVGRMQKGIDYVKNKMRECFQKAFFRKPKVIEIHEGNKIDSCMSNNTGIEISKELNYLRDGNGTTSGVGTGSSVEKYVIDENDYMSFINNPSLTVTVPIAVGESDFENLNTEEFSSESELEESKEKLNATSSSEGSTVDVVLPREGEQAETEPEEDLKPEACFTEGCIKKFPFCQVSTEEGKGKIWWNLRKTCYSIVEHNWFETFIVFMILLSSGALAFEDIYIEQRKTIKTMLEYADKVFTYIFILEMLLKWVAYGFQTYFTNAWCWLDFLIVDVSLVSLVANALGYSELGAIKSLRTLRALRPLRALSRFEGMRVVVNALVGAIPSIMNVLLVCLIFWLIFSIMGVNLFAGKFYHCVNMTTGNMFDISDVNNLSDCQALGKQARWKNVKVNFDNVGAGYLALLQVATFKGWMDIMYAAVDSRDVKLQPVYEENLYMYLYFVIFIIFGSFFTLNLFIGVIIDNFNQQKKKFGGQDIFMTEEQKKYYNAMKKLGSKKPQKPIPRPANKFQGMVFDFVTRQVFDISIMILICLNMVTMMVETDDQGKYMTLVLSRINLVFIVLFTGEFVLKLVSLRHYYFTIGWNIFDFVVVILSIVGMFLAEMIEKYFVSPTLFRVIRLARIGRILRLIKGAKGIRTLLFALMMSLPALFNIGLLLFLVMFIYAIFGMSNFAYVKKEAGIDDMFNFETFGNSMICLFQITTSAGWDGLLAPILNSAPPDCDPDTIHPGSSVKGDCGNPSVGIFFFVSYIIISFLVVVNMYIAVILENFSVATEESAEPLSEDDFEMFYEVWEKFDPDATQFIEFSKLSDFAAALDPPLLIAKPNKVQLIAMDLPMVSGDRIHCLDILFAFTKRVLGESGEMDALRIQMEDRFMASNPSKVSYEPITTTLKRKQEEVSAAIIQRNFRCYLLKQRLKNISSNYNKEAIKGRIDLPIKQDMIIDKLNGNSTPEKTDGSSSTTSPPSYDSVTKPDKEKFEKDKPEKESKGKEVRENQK

hNav1.4 = hNav1.4 (Homo sapiens, UniProt P35499); assay type: cell-based; settings: for IC50: read-out: IC50 (μM) Nav1.4; for Nav1.4/Nav1.7: ratio of IonWorks Quattro IC50 values
Sequence of hNav1.4 (P35499 whole entry): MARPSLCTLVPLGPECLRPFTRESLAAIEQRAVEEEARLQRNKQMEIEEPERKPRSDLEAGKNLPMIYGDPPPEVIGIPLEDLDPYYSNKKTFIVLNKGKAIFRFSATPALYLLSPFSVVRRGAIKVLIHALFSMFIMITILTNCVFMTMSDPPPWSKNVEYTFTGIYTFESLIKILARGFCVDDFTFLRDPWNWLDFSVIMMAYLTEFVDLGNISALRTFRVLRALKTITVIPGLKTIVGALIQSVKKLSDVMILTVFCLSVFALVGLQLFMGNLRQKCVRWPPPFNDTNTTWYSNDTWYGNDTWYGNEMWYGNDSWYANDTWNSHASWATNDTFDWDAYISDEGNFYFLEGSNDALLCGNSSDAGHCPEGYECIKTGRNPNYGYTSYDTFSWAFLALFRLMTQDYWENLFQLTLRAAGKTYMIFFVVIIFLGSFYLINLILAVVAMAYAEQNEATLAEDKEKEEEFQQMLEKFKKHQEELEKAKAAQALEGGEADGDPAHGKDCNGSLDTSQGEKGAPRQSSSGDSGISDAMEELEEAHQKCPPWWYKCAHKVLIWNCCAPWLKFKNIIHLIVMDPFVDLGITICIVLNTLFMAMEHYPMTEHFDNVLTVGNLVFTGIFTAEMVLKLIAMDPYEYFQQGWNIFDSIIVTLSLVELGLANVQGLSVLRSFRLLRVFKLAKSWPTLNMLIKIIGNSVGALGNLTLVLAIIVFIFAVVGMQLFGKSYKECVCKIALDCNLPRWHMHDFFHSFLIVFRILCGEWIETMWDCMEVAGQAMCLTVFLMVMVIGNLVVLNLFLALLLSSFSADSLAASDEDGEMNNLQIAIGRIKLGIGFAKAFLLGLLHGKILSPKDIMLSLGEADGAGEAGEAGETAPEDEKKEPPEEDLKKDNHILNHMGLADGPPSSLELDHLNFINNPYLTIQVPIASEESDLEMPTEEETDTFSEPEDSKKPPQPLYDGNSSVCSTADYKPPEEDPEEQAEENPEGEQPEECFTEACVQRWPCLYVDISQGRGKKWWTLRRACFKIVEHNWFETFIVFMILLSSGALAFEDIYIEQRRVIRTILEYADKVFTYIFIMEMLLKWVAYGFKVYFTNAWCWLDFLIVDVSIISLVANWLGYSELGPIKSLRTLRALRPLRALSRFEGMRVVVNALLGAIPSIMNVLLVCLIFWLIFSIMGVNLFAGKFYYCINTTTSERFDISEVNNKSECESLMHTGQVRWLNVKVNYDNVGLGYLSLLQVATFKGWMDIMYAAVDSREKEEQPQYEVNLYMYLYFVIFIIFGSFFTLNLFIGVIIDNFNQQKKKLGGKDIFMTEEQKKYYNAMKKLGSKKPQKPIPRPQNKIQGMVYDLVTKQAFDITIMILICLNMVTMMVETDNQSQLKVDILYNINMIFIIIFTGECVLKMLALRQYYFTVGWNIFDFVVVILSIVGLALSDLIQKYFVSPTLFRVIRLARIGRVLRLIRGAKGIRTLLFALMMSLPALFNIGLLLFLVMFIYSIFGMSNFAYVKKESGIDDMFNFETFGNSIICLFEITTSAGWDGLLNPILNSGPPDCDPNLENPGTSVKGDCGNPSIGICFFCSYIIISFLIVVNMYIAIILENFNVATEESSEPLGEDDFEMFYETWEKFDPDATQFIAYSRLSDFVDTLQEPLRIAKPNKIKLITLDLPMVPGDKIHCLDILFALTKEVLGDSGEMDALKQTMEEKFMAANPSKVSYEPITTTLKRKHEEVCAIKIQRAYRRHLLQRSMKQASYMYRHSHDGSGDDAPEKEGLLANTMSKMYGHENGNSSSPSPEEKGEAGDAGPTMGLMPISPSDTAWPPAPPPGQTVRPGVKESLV

hNav1.5 = hNav1.5 (Homo sapiens, UniProt Q14524); settings: read-out: IC50 (μM) Nav1.5

SMILES | IC50 (hNav1.7) | IC50 (hNav1.3; IonWorks Quattro, Table 6) [µM] | IC50 (hNav1.4; IonWorks Quattro, Table 6) [µM] | Nav1.4/Nav1.7 (hNav1.4; Table 6) | IC50 (hNav1.5; IonWorks Quattro, Table 6) [µM] | Nav1.4/Nav1.7 (hNav1.7) | IC50 (hNav1.3) [µM] | IC50 (hNav1.4) [µM] | IC50 (hNav1.5)
CC[C@H](C)[C@H](NC(=O)[C@@H](NC(=O)[C@H](CCCCN)NC(=O)[C@H](CCCNC(=N)N)NC(=O)[C@@H]1CSSC[C@@H]2NC(=O)[C@H](C)NC(=O)[C@H](CCCNC(=N)N)NC(=O)[C@H](CCCNC(=N)N)NC(=O)[C@H](CO)NC(=O)[C@H](CC(=O)O)NC(=O)[C@@H]3CSSC[C@H](NC(=O)[C@H](CCCNC(=N)N)NC(=O)[C@H](CC(C)C)NC(=O)CNC(=O)[C@H](CCC(=O)O)NC(=O)[C@H](CSSC[C@H](NC(=O)[C@@H](N)Cc4ccc(O)cc4)C(=O)N[C@@H](CCC(N)=O)C(=O)N[C@@H](CCCCN)C(=O)N[C@@H](Cc4c[nH]c5ccccc45)C(=O)N[C@@H](CCSC)C(=O)N[C@@H](Cc4c[nH]c5ccccc45)C(=O)N[C@@H]([C@@H](C)O)C(=O)N3)NC2=O)C(=O)N[C@@H](CCCCN)C(=O)N[C@@H](CC(C)C)C(=O)N[C@@H](Cc2c[nH]c3ccccc23)C(=O)N1)[C@@H](C)CC)C(N)=O [compound 99] | 0.008 µM | 0.05 | 0.15 | 19 | 2.5 | – | – | – | –
CC[C@H](C)[C@H](NC(=O)[C@@H](NC(=O)[C@H](CCCCN)NC(=O)[C@H](CCCNC(=N)N)NC(=O)[C@@H]1CSSC[C@@H]2NC(=O)[C@H](C)NC(=O)[C@H](CCCNC(=N)N)NC(=O)[C@H](CCCCN)NC(=O)[C@H](CO)NC(=O)[C@H](CC(=O)O)NC(=O)[C@@H]3CSSC[C@H](NC(=O)[C@H](CCCNC(=N)N)NC(=O)[C@H](CC(C)C)NC(=O)CNC(=O)[C@H](CCC(=O)O)NC(=O)[C@H](CSSC[C@H](NC(=O)[C@@H](N)Cc4ccc(O)cc4)C(=O)N[C@@H](CCC(N)=O)C(=O)N[C@@H](CCCCN)C(=O)N[C@@H](Cc4c[nH]c5ccccc45)C(=O)N[C@@H](CCSC)C(=O)N[C@@H](Cc4c[nH]c5ccccc45)C(=O)N[C@@H]([C@@H](C)O)C(=O)N3)NC2=O)C(=O)N[C@@H](CCCCN)C(=O)N[C@@H](CC(C)C)C(=O)N[C@@H](Cc2cccc3ccccc23)C(=O)N1)[C@@H](C)CC)C(N)=O [compound 43] | 0.075 µM | 0.46 | 0.33 | 4 | > 5 | – | – | – | –
CC[C@H](C)[C@H](NC(=O)[C@@H](NC(=O)[C@H](CCCCN)NC(=O)[C@H](CCCNC(=N)N)NC(=O)[C@@H]1CSSC[C@@H]2NC(=O)[C@H](C)NC(=O)[C@H](CCCNC(=N)N)NC(=O)[C@H](CCCCN)NC(=O)[C@H](CO)NC(=O)[C@H](CC(=O)O)NC(=O)[C@@H]3CSSC[C@H](NC(=O)[C@H](CCCNC(=N)N)NC(=O)[C@H](CC(C)C)NC(=O)CNC(=O)[C@H](CCC(=O)O)NC(=O)[C@H](CSSC[C@H](NC(=O)[C@@H](N)Cc4cccc5ccccc45)C(=O)N[C@@H](CCC(N)=O)C(=O)N[C@@H](CCCCN)C(=O)N[C@@H](Cc4c[nH]c5ccccc45)C(=O)N[C@@H](CCSC)C(=O)N[C@@H](Cc4c[nH]c5ccccc45)C(=O)N[C@@H]([C@@H](C)O)C(=O)N3)NC2=O)C(=O)N[C@@H](CCCCN)C(=O)N[C@@H](CC(C)C)C(=O)N[C@@H](Cc2c[nH]c3ccccc23)C(=O)N1)[C@@H](C)CC)C(N)=O [compound 25] | 0.008 µM | 0.07 | 0.09 | 10 | 2.3 | – | – | – | –
CC[C@H](C)[C@H](NC(=O)[C@@H](NC(=O)[C@H](CCCCN)NC(=O)[C@H](CCCNC(=N)N)NC(=O)[C@@H]1CSSC[C@@H]2NC(=O)[C@H](C)NC(=O)[C@H](C)NC(=O)[C@H](CCCCN)NC(=O)[C@H](CO)NC(=O)[C@H](CC(=O)O)NC(=O)[C@@H]3CSSC[C@H](NC(=O)[C@H](CCCNC(=N)N)NC(=O)[C@H](CC(C)C)NC(=O)CNC(=O)[C@H](CCC(=O)O)NC(=O)[C@H](CSSC[C@H](NC(=O)[C@@H](N)Cc4ccc(O)cc4)C(=O)N[C@@H](CCC(N)=O)C(=O)N[C@@H](CCCCN)C(=O)N[C@@H](Cc4c[nH]c5ccccc45)C(=O)N[C@@H](CCSC)C(=O)N[C@@H](Cc4c[nH]c5ccccc45)C(=O)N[C@@H]([C@@H](C)O)C(=O)N3)NC2=O)C(=O)N[C@@H](CCCCN)C(=O)N[C@@H](CC(C)C)C(=O)N[C@@H](Cc2c[nH]c3ccccc23)C(=O)N1)[C@@H](C)CC)C(N)=O [compound 13] | 0.079 µM | 0.3 | 0.57 | 7 | > 5 | – | – | – | –
CC[C@H](C)[C@H](NC(=O)[C@@H](NC(=O)[C@H](CCCCN)NC(=O)[C@H](CCCNC(=N)N)NC(=O)[C@@H]1CSSC[C@@H]2NC(=O)[C@H](C)NC(=O)[C@H](CCCNC(=N)N)NC(=O)[C@H](CCCCN)NC(=O)[C@H](CO)NC(=O)[C@H](CC(=O)O)NC(=O)[C@@H]3CSSC[C@H](NC(=O)[C@H](CCCCN)NC(=O)[C@H](CC(C)C)NC(=O)CNC(=O)[C@H](CCC(=O)O)NC(=O)[C@H](CSSC[C@H](NC(=O)[C@@H](N)Cc4ccc(O)cc4)C(=O)N[C@@H](CCC(N)=O)C(=O)N[C@@H](CCCCN)C(=O)N[C@@H](Cc4c[nH]c5ccccc45)C(=O)N[C@@H](CCSC)C(=O)N[C@@H](Cc4c[nH]c5ccccc45)C(=O)N[C@@H]([C@@H](C)O)C(=O)N3)NC2=O)C(=O)N[C@@H](CCCCN)C(=O)N[C@@H](CC(C)C)C(=O)N[C@@H](Cc2c[nH]c3ccccc23)C(=O)N1)[C@@H](C)CC)C(N)=O [compound 84] | 0.02 µM | 0.06 | 0.26 | 13 | 3.4 | – | – | – | –
CC[C@H](C)[C@H](NC(=O)[C@@H](NC(=O)[C@H](CCCCN)NC(=O)[C@H](CCCNC(=N)N)NC(=O)[C@@H]1CSSC[C@@H]2NC(=O)[C@H](CCCNC(=N)N)NC(=O)[C@H](CCCNC(=N)N)NC(=O)[C@H](CCCCN)NC(=O)[C@H](CO)NC(=O)[C@H](CC(=O)O)NC(=O)[C@@H]3CSSC[C@H](NC(=O)[C@H](CCCNC(=N)N)NC(=O)[C@H](CC(C)C)NC(=O)CNC(=O)[C@H](CCC(=O)O)NC(=O)[C@H](CSSC[C@H](NC(=O)[C@@H](N)Cc4ccc(O)cc4)C(=O)N[C@@H](CCC(N)=O)C(=O)N[C@@H](CCCCN)C(=O)N[C@@H](Cc4c[nH]c5ccccc45)C(=O)N[C@@H](CCSC)C(=O)N[C@@H](Cc4c[nH]c5ccccc45)C(=O)N[C@@H]([C@@H](C)O)C(=O)N3)NC2=O)C(=O)N[C@@H](CCCCN)C(=O)N[C@@H](CC(C)C)C(=O)N[C@@H](Cc2c[nH]c3ccccc23)C(=O)N1)[C@@H](C)CC)C(N)=O [compound 100] | 0.008 µM | 0.04 | 0.08 | 11 | 1.4 | – | – | – | –
CC[C@H](C)[C@H](NC(=O)[C@@H](NC(=O)[C@H](CCCCN)NC(=O)[C@H](CCCNC(=N)N)NC(=O)[C@@H]1CSSC[C@@H]2NC(=O)[C@H](C)NC(=O)[C@H](CCCNC(=N)N)NC(=O)[C@H](CCCCN)NC(=O)[C@H](CO)NC(=O)[C@H](CC(=O)O)NC(=O)[C@@H]3CSSC[C@H](NC(=O)[C@H](CCCNC(=N)N)NC(=O)[C@H](CC(C)C)NC(=O)CNC(=O)[C@H](CCC(=O)O)NC(=O)[C@H](CSSC[C@H](NC(=O)[C@@H](N)Cc4ccc(O)cc4)C(=O)N[C@@H](CCC(N)=O)C(=O)N[C@@H](CCCCN)C(=O)N[C@@H](Cc4c[nH]c5ccccc45)C(=O)N[C@@H](CCSC)C(=O)N[C@@H](C)C(=O)N[C@@H]([C@@H](C)O)C(=O)N3)NC2=O)C(=O)N[C@@H](CCCCN)C(=O)N[C@@H](CC(C)C)C(=O)N[C@@H](Cc2c[nH]c3ccccc23)C(=O)N1)[C@@H](C)CC)C(N)=O [compound 8] | 0.15 µM | 0.94 | 0.69 | 5 | > 5 | – | – | – | –
CC[C@@H]1NC(=O)[C@H](CC(C)C)NC(=O)CNC(=O)[C@H](CCC(=O)O)NC(=O)[C@@H]2CSSC[C@H](NC(=O)[C@@H](N)Cc3ccc(O)cc3)C(=O)N[C@@H](CCC(N)=O)C(=O)N[C@@H](CCCCN)C(=O)N[C@@H](Cc3c[nH]c4ccccc34)C(=O)N[C@@H](CCSC)C(=O)N[C@@H](Cc3c[nH]c4ccccc34)C(=O)N[C@@H]([C@@H](C)O)C(=O)N[C@H]3CSSC[C@H](NC1=O)C(=O)N[C@@H](CCCCN)C(=O)N[C@@H](CC(C)C)C(=O)N[C@@H](Cc1c[nH]c4ccccc14)C(=O)N[C@H](C(=O)N[C@@H](CCCNC(=N)N)C(=O)N[C@@H](CCCCN)C(=O)N[C@H](C(=O)N[C@H](C(N)=O)[C@@H](C)CC)[C@@H](C)CC)CSSC[C@H](NC(=O)[C@H](C)NC(=O)[C@H](CCCNC(=N)N)NC(=O)[C@H](CCCCN)NC(=O)[C@H](CO)NC(=O)[C@H](CC(=O)O)NC3=O)C(=O)N2 [compound 117] | 0.05 µM | – | – | – | – | 19 | 0.97 | 0.9 | 10.6 µM
CC[C@H](NC(=O)[C@H](CCCCN)NC(=O)[C@H](CCCNC(=N)N)NC(=O)[C@@H]1CSSC[C@@H]2NC(=O)[C@H](C)NC(=O)[C@H](CCCNC(=N)N)NC(=O)[C@H](CCCCN)NC(=O)[C@H](CO)NC(=O)[C@H](CC(=O)O)NC(=O)[C@@H]3CSSC[C@H](NC(=O)[C@H](CCC(=O)O)NC(=O)[C@H](CC(C)C)NC(=O)CNC(=O)[C@H](CCC(=O)O)NC(=O)[C@H](CSSC[C@H](NC(=O)[C@@H](N)Cc4ccc(O)cc4)C(=O)N[C@@H](CCC(N)=O)C(=O)N[C@@H](CCCCN)C(=O)N[C@@H](Cc4c[nH]c5ccccc45)C(=O)N[C@@H](CCSC)C(=O)N[C@@H](Cc4c[nH]c5ccccc45)C(=O)N[C@@H]([C@@H](C)O)C(=O)N3)NC2=O)C(=O)N[C@@H](CCCCN)C(=O)N[C@@H](CC(C)C)C(=O)N[C@@H](Cc2c[nH]c3ccccc23)C(=O)N1)C(=O)N[C@H](C(N)=O)[C@@H](C)CC [compound 130] | 0.17 µM and 0.21 µM | – | – | – | – | 29 and 24 | > 5 | > 5 | 8.2 µM and 11.1 µM
